Test results: patent US20070184519A1, “Peptides, polypeptides, and proteins of reduced immunogenicity and methods for their production” (priority 2003, published 2007)
Where two headings read alike, the source gives them in different places. Blank lines part the entries; values can stand above or below the compound they belong to. Ends that are not written are not given here.

Columns and labels:
DRB1*0401 = target: T1, DRB1*0401 (Homo sapiens, UniProt P01903+P01911, A100K/A169T/F76Y/I96L/K127E/L162R/M171V/N62H/P40V/Q125Y/R42H/S133A/S149N/S66Y/V115G/V209L/W38E); assay: Class II peptide-binding assay DRB1*0401 (DR4w4)
T1 construct: Epstein-Barr virus (EBV) transformed homozygous cell lines were used as sources of human HLA Class II molecules; endogenous in cells; host or cells: PREISS (EBV-transformed homozygous B cell line)

DRB1*0405 = target: T2, DRB1*0405 (Homo sapiens, UniProt P01903+P01911, A100R/A169T/D86S/F76Y/I96L/K127E/L162R/M171V/N62H/P40V/Q125Y/R42H/S133A/S149N/S66Y/V115G/V209L/W38E); assay: Class II peptide-binding assay DRB1*0405 (DR4w15)
T2 construct: Epstein-Barr virus (EBV) transformed homozygous cell lines were used as sources of human HLA Class II molecules; endogenous in cells; host or cells: KT3 (EBV-transformed homozygous B cell line)

DRB1*0301 = target: T3, DRB1*0301 (Homo sapiens, UniProt P01903+P01911, A100K/A102G/A103R/A169T/F55Y/I96L/K41T/L162R/M171V/P40S/Q125H/Q178H/Q39Y/R42S/S66N/T106N/T262R/W38E/Y61H); assay: Class II peptide-binding assay DRB1*0301 (DR3)
T3 construct: Epstein-Barr virus (EBV) transformed homozygous cell lines were used as sources of human HLA Class II molecules; endogenous in cells; host or cells: MAT (EBV-transformed homozygous B cell line)

DRB1*0701 = target: T4, DRB1*0701 (Homo sapiens, UniProt P01903+P01911, A100R/A102G/A103Q/D57E/D86V/E43K/F76Y/K127E/L162R/M171V/P40G/Q125H/Q99D/R33Q/R42Y/R54Q/S133A/S66F/T210M/V115G/Y107V/Y59L/Y89S); assay: Class II peptide-binding assay DRB1*0701 (DR7)
T4 construct: Epstein-Barr virus (EBV) transformed homozygous cell lines were used as sources of human HLA Class II molecules; endogenous in cells; host or cells: PITOUT (EBV-transformed homozygous B cell line)

DRB4*0101 = target: T5, DRB4*0101 (Homo sapiens, UniProt P01903+P13762, G164S); assay: Class II peptide-binding assay DRB4*0101 (DRw53)
T5 construct: expressed in transfected cells; host or cells: transfected fibroblasts L257.6

DRB1*0101 = target: T6, DRB1*0101 (Homo sapiens, UniProt P01903+P01911, A100R/D57E/F55L/F60I/F76Y/I96L/L162R/M171V/P40L/Q125E/R42F/V115G/Y59C); assay: Class II peptide-binding assay DRB1*0101 (DR1)
T6 construct: Epstein-Barr virus (EBV) transformed homozygous cell lines were used as sources of human HLA Class II molecules; endogenous in cells; host or cells: LG2 (EBV-transformed homozygous B cell line)

DRB3*0101 = target: T7, DRB3*0101 (Homo sapiens, UniProt P01903+P79483); assay: Class II peptide-binding assay DRB3*0101 (DR52a)
T7 construct: expressed in transfected cells; host or cells: transfected fibroblasts TR81.19

DRB1*1302 = target: T8, DRB1*1302 (Homo sapiens, UniProt P01903+P01911, A100E/A169T/K41T/L162R/M171V/P40S/Q125H/Q178H/Q39Y/Q99D/R42S/S66N/T262R/V115G/W38E/Y61H); assay: Class II peptide-binding assay DRB1*1302 (DR6w19)
T8 construct: Epstein-Barr virus (EBV) transformed homozygous cell lines were used as sources of human HLA Class II molecules; endogenous in cells; host or cells: HO301 / H0301 (EBV-transformed homozygous B cell line)

DRB5*0101 = target: T9, DRB5*0101 (Homo sapiens, UniProt P01903+Q30154); assay: Class II peptide-binding assay DRB5*0101 (DR2w2a)
T9 construct: Epstein-Barr virus (EBV) transformed homozygous cell lines were used as sources of human HLA Class II molecules; endogenous in cells; host or cells: GM3107 (EBV-transformed homozygous B cell line)

DRB1*1101 = target: T10, DRB1*1101 (Homo sapiens, UniProt P01903+P01911, A100R/A169T/A87E/I96F/K41T/L162R/M171V/P40S/Q125H/Q178H/Q39Y/Q99D/R42S/S66Y/T262R/V115G/W38E); assay: Class II peptide-binding assay DRB1*1101 (DR5w11)
T10 construct: Epstein-Barr virus (EBV) transformed homozygous cell lines were used as sources of human HLA Class II molecules; endogenous in cells; host or cells: SWEIG (EBV-transformed homozygous B cell line)

DRB1*0901 = DRB1*0901 (Homo sapiens, UniProt P01903+P01911, A100R/A103E/D57H/D86V/F55Y/F60I/F76Y/I96F/K127E/L162R/M171V/P40D/Q125H/Q99R/R33Q/R42F/S133A/S66N/T210M/V115G/W38K/Y107V/Y59G/Y89S); assay: Class II peptide-binding assay DRB1*0901 (DR9)
DRB1*0802 = target: T11, DRB1*0802 (Homo sapiens, UniProt P01903+P01911, A100R/A103L/A169T/F76Y/H45Y/I96F/K41T/L162R/M171V/P40S/Q125H/Q178H/Q39Y/Q99D/R218S/R42G/S66Y/V115G/W38E); assay: Class II peptide-binding assay DRB1*0802 (DR8w2)
T11 construct: Epstein-Barr virus (EBV) transformed homozygous cell lines were used as sources of human HLA Class II molecules; endogenous in cells; host or cells: OLL (EBV-transformed homozygous B cell line)

DRB1*0404 = target: T12, DRB1*0404 (Homo sapiens, UniProt P01903+P01911, A100R/A169T/F76Y/I96L/K127E/L162R/M171V/N62H/P40V/Q125Y/R42H/S133A/S149N/S66Y/V209L/W38E); assay: Class II peptide-binding assay DRB1*0404 (DR4w14)
T12 construct: Epstein-Barr virus (EBV) transformed homozygous cell lines were used as sources of human HLA Class II molecules; endogenous in cells; host or cells: BIN40 (EBV-transformed homozygous B cell line)

[1] = known HLA-DR and DQ restricted epitopes, Table 6
[2] = inhibition of radiolabeled probe binding, — read as no appreciable binding

T10 sequence (P01903 26-254, other chains not shown): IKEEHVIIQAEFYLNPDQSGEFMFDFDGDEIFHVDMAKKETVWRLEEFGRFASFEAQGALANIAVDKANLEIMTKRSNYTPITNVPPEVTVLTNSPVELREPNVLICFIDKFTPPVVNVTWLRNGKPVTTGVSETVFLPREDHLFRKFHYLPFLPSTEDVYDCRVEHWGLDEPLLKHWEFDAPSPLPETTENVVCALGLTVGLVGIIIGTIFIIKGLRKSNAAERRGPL
T3 sequence (P01903 26-254, other chains not shown): as above
T8 sequence (P01903 26-254, other chains not shown): as above

Compound: CC[C@H](C)[C@H](NC(=O)[C@H](CCCNC(=N)N)NC(=O)[C@H](Cc1c[nH]c2ccccc12)NC(=O)[C@@H](NC(=O)[C@H](C)NC(=O)CNC(=O)[C@H](Cc1c[nH]c2ccccc12)NC(=O)[C@H](CO)NC(=O)[C@@H](N)CCC(=O)O)C(C)C)C(=O)N[C@@H](CC(=O)O)C(=O)N[C@H](C(=O)N1CCC[C@H]1C(=O)N[C@@H](CC(=O)O)C(=O)N[C@@H](CCCCN)C(=O)N[C@@H](CC(C)C)C(=O)N[C@H](C(=O)NCC(=O)N1CCC[C@H]1C(=O)N[C@@H](Cc1ccccc1)C(=O)N[C@H](C(=O)O)[C@@H](C)O)[C@@H](C)O)[C@@H](C)O
IC50 (DRB1*0401; [1]): > 20 µM | IC50 (DRB1*0405; [1]): 1.73 µM | IC50 (DRB1*0301; [1]): 3.18 µM | IC50 (DRB1*0701; [1]): > 20 µM | IC50 (DRB4*0101; [1]): 1.12 µM | IC50 (DRB1*0101; [1]): 2.5 µM

Compound: DTGRKLFRVYSNFLR
IC50 (DRB1*0401): 0.046 µM | IC50 (DRB1*0405): 0.039 µM | IC50 (DRB1*0301): 1.28 µM | IC50 (DRB4*0101): 1.13 µM | IC50 (DRB1*1302): 0.0075 µM | IC50 (DRB5*0101): 0.012 µM | IC50 (DRB1*1101): 0.026 µM | IC50 (DRB1*0901): 0.161 µM | IC50 (DRB1*0101): 0.018 µM

Compound: TSLCFSESIPTPSNR
IC50 (DRB3*0101; [2]): 22.6 µM

Compound: CC[C@H](C)[C@H](NC(=O)[C@H](Cc1ccc(O)cc1)NC(=O)[C@@H]1CCCN1C(=O)[C@H](CC(=O)O)NC(=O)[C@H](CCC(=O)O)NC(=O)[C@H](CC(C)C)NC(=O)[C@@H](NC(=O)[C@H](C)N)C(C)C)C(=O)N[C@@H](CC(C)C)C(=O)N[C@@H](CC(C)C)C(=O)N[C@H](C(=O)N[C@@H](CO)C(=O)N[C@@H](CO)C(=O)N[C@@H](CCCCN)C(=O)N[C@H](C(=O)N[C@@H](CO)C(=O)O)C(C)C)C(C)C
IC50 (DRB1*0401; [1]): 0.182 µM | IC50 (DRB3*0101): 5 µM | IC50 (DRB1*0301; [1]): > 20 µM | IC50 (DRB1*0701; [1]): 0.073 µM | IC50 (DRB4*0101): 4.21 µM | IC50 (DRB5*0101): 2.5 µM | IC50 (DRB1*1101; [1]): 6.67 µM

Second part, the compound after the results:

IC50 (DRB4*0101; [2]): 3.71 µM
Compound: LLKDLEEGIQTLMGR

IC50 (DRB3*0101; [2]): 6.94 µM
Compound: LLYCFRKDMDKVETF

IC50 (DRB1*0401): 0.0085 µM | IC50 (DRB1*0405): 0.011 µM | IC50 (DRB1*0802): 0.24 µM | IC50 (DRB1*0404): 0.0093 µM | IC50 (DRB1*0301): 13 µM | IC50 (DRB1*0701): 10.3 µM | IC50 (DRB5*0101): 0.804 µM | IC50 (DRB1*1101): 0.01 µM | IC50 (DRB1*0101): 0.014 µM
Compound: CC(C)C[C@H](NC(=O)CN)C(=O)N[C@@H](CCCNC(=N)N)C(=O)N[C@@H](CO)C(=O)N[C@@H](CC(C)C)C(=O)N[C@H](C(=O)N[C@H](C(=O)N[C@@H](CC(C)C)C(=O)N[C@@H](CC(C)C)C(=O)N[C@@H](CC(=O)O)C(=O)N[C@@H](C)C(=O)N[C@@H](CC(C)C)C(=O)NCC(=O)N[C@@H](C)C(=O)N[C@@H](CCC(N)=O)C(=O)O)[C@@H](C)O)[C@@H](C)O

IC50 (DRB1*0802; [1]): 13.4 µM | IC50 (DRB1*0404; [1]): 0.143 µM | IC50 (DRB3*0101; [1]): > 20 µM | IC50 (DRB1*0701; [1]): 0.296 µM | IC50 (DRB1*1302; [1]): 0.0053 µM | IC50 (DRB5*0101; [1]): > 20 µM
Compound: CC[C@H](C)[C@H](NC(=O)[C@H](CC(N)=O)NC(=O)[C@@H](N)CCC(N)=O)C(=O)N[C@@H](CC(C)C)C(=O)N[C@@H](CC(C)C)C(=O)N[C@@H](CO)C(=O)N[C@@H](CC(N)=O)C(=O)N[C@@H](C)C(=O)N1CCC[C@H]1C(=O)N[C@@H](CC(C)C)C(=O)NCC(=O)N1CCC[C@H]1C(=O)N[C@@H](CCC(N)=O)C(=O)N[C@@H](Cc1ccccc1)C(=O)N1CCC[C@H]1C(=O)O

IC50 (DRB4*0101; IFNb 15-mer peptides, Table 5D): 1.39 µM | IC50 (DRB5*0101; IFNb 15-mer peptides, Table 5D): 6.76 µM
Compound: NHLKTVLEEKLEKED [NHLKTVLEEKLEKED]
